This is an account of results in paper PMC4672894, “Bromodomain Proteins Contribute to Maintenance of Bloodstream Form Stage Identity in the African Trypanosome” (PLoS Biology, 2015).

The structures appear in SMILES notation.

Holding throughout (experiment): isothermal titration calorimetry
What all share (format): binding
(In ITC the heat of successive injections is recorded.)

The target in experiment [1] is T1, Bdf3 bromodomain (Bdf3^32-150) (Trypanosoma brucei, UniProt Q383S2).
T1 construct: gene Tb11.01.1830; bromodomain, residues 32-150, amplified from genomic DNA, pET28a with N-terminal PreScission-cleavable His6 tag, E. coli; strain-construction section prints a conflicting locus Tb427.01.1830
T1 sequence (Q383S2 32-150): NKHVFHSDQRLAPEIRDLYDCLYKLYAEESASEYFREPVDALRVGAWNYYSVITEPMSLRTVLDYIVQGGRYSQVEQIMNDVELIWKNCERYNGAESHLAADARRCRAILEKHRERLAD
An excerpt:
isothermal titration calorimetry on Bdf3 bromodomain (Bdf3^32-150) | confirmed direct and specific binding of I-BET151 to their AcK recognition sites

The target of experiment [2] is T2, Bdf2 bromodomain (Bdf2^9-123) (Trypanosoma brucei, UniProt Q38AM1).
T2 construct: gene Tb10.6k15.3240; bromodomain, residues 9-123, amplified from genomic DNA, pET28a with N-terminal PreScission-cleavable His6 tag, E. coli; crystal model residues 9-114
T2 sequence (Q38AM1 9-123): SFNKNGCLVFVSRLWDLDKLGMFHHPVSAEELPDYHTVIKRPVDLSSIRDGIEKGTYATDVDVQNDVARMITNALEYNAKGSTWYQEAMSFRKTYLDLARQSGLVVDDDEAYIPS
An excerpt:
isothermal titration calorimetry on Bdf2 bromodomain (Bdf2^9-123) | confirmed direct and specific binding of I-BET151 to their AcK recognition sites

Experiment [3] has as its target T2, Bdf2 bromodomain (Bdf2^9-123). To be noted: 15°C, pH 7.5, 20 mM Hepes, 150 mM NaCl, 0.5 mM TCEP, 1% DMSO.
For experiment [4], the target named is T1, Bdf3 bromodomain (Bdf3^32-150). To be noted: 15°C, pH 7.5, 20 mM Hepes, 150 mM NaCl, 0.5 mM TCEP, 1% DMSO.

As for `COc1cc2c(cc1-c1c(C)noc1C)ncc1[nH]c(=O)n([C@H](C)c3ccccn3)c12` [I-BET151], the Kd (usually a measure of binding affinity in units of concentration) was 175 ± 10 µM in experiment [1] and 225 ± 5 µM in experiment [2].

As for `Cc1sc2c(c1C)C(c1ccc(Cl)cc1)=N[C@@H](CC(=O)OC(C)(C)C)c1nnc(C)n1-2` [JQ1], the no binding detected entry is listed as “we could not detect binding of another well characterized bromodomain inhibitor, JQ1” in experiment [3] and “we could not detect binding of another well characterized bromodomain inhibitor, JQ1” in experiment [4].
